In ChEMBL document CHEMBL4507279, “Data for DCP probe BI-9627” (2021):

Experiments:
[1] = molecular target: Sodium-dependent serotonin transporter (Homo sapiens) (UniProt P31645); test: 5HTTRANS/HU Eurofins-Panlabs selectivity data (BI); conditions: Compound concentration 10.0 uM
[2] = molecular target: T1, Alpha-1D adrenergic receptor (Homo sapiens) (UniProt P25100); test: ALPHA1D/H Eurofins-Panlabs selectivity data (BI); conditions: Compound concentration 10.0 uM
T1 sequence (whole entry): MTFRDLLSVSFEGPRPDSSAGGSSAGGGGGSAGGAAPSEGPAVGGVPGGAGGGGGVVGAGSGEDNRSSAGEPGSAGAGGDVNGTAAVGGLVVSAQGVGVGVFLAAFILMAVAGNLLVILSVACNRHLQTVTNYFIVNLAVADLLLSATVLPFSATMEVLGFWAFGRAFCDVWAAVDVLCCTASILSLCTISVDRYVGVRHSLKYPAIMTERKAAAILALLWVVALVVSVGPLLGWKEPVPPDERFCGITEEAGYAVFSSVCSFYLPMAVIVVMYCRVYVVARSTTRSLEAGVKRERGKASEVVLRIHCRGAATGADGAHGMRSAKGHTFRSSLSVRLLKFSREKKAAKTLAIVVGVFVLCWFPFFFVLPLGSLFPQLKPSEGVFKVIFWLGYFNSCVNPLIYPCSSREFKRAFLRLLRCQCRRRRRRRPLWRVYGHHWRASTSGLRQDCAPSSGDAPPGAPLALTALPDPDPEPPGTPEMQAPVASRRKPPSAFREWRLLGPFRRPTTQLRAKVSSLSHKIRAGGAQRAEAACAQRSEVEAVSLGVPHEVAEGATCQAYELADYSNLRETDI

[3] = molecular target: B2 bradykinin receptor (Homo sapiens) (UniProt P30411); test: B2/HU Eurofins-Panlabs selectivity data (BI); conditions: Compound concentration 10.0 uM
[4] = molecular target: Beta-2 adrenergic receptor (Homo sapiens) (UniProt P07550); test: BETA2/HU Eurofins-Panlabs selectivity data (BI); conditions: Compound concentration 10.0 uM
[5] = molecular target: Voltage-dependent L-type calcium channel subunit alpha-1C (DHP site) (Rattus norvegicus, UniProt P22002); test: CA+/DHPSI/RA Eurofins-Panlabs selectivity data (BI); conditions: compound concentration 10 uM, read-out: % Ctrl
[6] = molecular target: Voltage-dependent N-type calcium channel subunit alpha-1B (Rattus norvegicus) (UniProt Q02294); test: CA+/N/RA Eurofins-Panlabs selectivity data (BI); conditions: Compound concentration 10.0 uM
[7] = molecular target: Cysteinyl leukotriene receptor 1 (Homo sapiens) (UniProt Q9Y271); test: CYSLT1_HS Eurofins-Panlabs selectivity data (BI); conditions: Compound concentration 10.0 uM
[8] = molecular target: D(3) dopamine receptor (Homo sapiens) (UniProt P35462); test: D3/HU Eurofins-Panlabs selectivity data (BI); conditions: Compound concentration 10.0 uM
[9] = molecular target: T2, D(4) dopamine receptor (Homo sapiens) (UniProt P21917); test: D4.2/H Eurofins-Panlabs selectivity data (BI); conditions: Compound concentration 10.0 uM
T2 sequence (whole entry): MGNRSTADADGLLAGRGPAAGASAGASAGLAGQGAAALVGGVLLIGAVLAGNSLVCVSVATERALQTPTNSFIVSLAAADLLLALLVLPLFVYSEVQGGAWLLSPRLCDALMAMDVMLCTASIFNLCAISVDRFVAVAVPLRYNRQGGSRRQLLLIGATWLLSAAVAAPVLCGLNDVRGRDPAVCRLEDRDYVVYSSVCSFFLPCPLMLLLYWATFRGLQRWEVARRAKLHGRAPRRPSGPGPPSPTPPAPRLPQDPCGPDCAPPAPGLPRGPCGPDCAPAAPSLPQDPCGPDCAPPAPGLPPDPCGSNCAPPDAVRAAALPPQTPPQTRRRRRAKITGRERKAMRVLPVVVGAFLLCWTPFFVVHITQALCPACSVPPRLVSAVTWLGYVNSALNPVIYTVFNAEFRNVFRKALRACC

[10] = molecular target: Sodium-dependent dopamine transporter (Homo sapiens, UniProt Q01959); test: DATRANS/H Eurofins-Panlabs selectivity data (BI); conditions: Compound concentration 10.0 uM
[11] = molecular target: Delta-type opioid receptor (Homo sapiens) (UniProt P41143); test: DELTA/HU Eurofins-Panlabs selectivity data (BI); conditions: Compound concentration 10.0 uM
[12] = molecular target: Endothelin-1 receptor (Homo sapiens) (UniProt P25101); test: ETA/HU Eurofins-Panlabs selectivity data (BI); conditions: Compound concentration 10.0 uM
[13] = molecular target: Sodium- and chloride-dependent GABA transporter 1 (Rattus norvegicus) (UniProt P23978); test: GABATRANS/RA Eurofins-Panlabs selectivity data (BI); conditions: Compound concentration 10.0 uM
[14] = molecular target: Histamine H2 receptor (Homo sapiens) (UniProt P25021); test: H2/H Eurofins-Panlabs selectivity data (BI); conditions: Compound concentration 10.0 uM
[15] = molecular target: T3, Muscarinic acetylcholine receptor M2 (Homo sapiens) (UniProt P08172); test: M2/HU Eurofins-Panlabs selectivity data (BI)
T3 sequence (whole entry): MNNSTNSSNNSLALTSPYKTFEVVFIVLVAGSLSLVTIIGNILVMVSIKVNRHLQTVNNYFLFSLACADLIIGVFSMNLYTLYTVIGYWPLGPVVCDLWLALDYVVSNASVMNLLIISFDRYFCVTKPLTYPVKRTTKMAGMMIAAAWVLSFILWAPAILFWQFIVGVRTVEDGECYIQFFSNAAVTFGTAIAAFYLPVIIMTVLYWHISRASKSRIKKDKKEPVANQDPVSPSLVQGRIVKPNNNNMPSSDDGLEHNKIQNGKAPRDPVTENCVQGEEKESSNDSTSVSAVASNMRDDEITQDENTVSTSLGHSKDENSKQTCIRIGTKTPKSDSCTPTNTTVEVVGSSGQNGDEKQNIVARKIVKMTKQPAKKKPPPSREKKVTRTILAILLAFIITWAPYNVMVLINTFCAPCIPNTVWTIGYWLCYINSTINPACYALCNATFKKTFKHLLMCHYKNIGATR

[16] = molecular target: Mu-type opioid receptor (Homo sapiens) (UniProt P35372); test: MU/HU Eurofins-Panlabs selectivity data (BI); conditions: Compound concentration 10.0 uM
[17] = molecular target: Nicotinic acetylcholine receptor alpha-1/beta-1 (Homo sapiens) (UniProt P02708+P11230); test: NACH_BS_N/H Eurofins-Panlabs selectivity data (BI); type: protein-complex assay; conditions: Compound concentration 10.0 uM
[18] = molecular target: Protein kinase C alpha type (Mus musculus) (UniProt P20444); test: PHORBOLE/M Eurofins-Panlabs selectivity data (BI); conditions: Compound concentration 10.0 uM
[19] = molecular target: 3',5'-cyclic-AMP phosphodiesterase 4A (Rattus norvegicus) (UniProt P54748); test: ROLIPRAM/R Eurofins-Panlabs selectivity data (BI); conditions: Compound concentration 10.0 uM
[20] = molecular target: Androgen receptor (Rattus norvegicus) (UniProt P15207); test: TESTOST/RA Eurofins-Panlabs selectivity data (BI); conditions: Compound concentration 10.0 uM
[21] = molecular target: Kappa-type opioid receptor (Homo sapiens) (UniProt P41145); conditions: Compound concentration 10.0 uM
[22] = molecular target: Beta-1 adrenergic receptor (Homo sapiens) (UniProt P08588); conditions: Compound concentration 10.0 uM
[23] = tested on: Proto-oncogene tyrosine-protein kinase receptor Ret (Homo sapiens), P07949 [M918T]; conditions: Compound concentration 1000.0 nM
[24] = molecular target: Alpha-1B adrenergic receptor (Homo sapiens) (UniProt P35368); conditions: Compound concentration 10.0 uM

Mu-type opioid receptor (Homo sapiens), sequence (P35372 whole entry): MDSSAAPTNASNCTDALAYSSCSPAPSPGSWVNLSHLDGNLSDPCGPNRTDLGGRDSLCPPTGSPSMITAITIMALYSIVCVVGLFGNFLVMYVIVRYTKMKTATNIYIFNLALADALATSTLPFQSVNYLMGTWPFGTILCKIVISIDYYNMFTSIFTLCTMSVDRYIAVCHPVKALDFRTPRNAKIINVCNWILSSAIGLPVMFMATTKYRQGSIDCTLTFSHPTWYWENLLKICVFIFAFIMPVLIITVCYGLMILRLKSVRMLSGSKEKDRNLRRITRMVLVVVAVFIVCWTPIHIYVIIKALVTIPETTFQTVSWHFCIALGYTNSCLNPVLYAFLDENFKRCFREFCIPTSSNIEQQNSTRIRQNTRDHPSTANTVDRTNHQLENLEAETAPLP
Androgen receptor (Rattus norvegicus), sequence (P15207 whole entry S389L): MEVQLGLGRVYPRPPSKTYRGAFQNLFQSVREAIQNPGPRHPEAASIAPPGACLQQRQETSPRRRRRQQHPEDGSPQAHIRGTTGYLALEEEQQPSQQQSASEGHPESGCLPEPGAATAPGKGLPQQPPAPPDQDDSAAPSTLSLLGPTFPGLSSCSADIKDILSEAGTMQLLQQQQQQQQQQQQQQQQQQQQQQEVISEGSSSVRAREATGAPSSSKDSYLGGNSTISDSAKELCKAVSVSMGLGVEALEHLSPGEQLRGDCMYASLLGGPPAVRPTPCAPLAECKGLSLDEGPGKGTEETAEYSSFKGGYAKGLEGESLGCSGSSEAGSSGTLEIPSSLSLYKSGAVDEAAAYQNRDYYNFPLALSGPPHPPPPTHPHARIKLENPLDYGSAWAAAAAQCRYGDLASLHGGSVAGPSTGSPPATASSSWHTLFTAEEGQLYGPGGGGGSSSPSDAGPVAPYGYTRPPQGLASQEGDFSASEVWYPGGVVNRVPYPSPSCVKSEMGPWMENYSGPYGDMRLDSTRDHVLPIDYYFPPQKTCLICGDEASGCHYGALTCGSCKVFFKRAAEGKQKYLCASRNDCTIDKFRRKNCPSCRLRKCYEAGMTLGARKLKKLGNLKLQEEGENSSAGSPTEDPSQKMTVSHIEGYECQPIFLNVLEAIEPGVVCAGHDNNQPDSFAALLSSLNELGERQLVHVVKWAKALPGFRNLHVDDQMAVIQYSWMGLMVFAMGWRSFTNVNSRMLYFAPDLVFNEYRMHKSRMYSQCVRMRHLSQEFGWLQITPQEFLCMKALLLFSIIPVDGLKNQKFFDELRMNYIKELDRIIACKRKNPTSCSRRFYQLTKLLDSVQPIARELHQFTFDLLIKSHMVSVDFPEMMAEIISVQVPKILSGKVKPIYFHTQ
Beta-2 adrenergic receptor (Homo sapiens), sequence (P07550 whole entry, looked up): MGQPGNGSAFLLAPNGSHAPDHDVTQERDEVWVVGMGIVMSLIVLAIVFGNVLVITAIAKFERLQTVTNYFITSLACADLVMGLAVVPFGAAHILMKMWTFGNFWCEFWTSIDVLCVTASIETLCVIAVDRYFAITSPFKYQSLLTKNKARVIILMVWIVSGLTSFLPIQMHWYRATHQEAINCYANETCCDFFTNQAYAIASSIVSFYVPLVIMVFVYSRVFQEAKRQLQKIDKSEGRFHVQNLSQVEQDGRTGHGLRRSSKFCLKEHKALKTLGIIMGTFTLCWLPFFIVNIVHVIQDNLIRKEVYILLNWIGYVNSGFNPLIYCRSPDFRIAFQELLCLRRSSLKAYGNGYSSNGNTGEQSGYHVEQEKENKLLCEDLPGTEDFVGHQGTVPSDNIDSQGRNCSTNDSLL
Kappa-type opioid receptor (Homo sapiens), sequence (P41145 whole entry): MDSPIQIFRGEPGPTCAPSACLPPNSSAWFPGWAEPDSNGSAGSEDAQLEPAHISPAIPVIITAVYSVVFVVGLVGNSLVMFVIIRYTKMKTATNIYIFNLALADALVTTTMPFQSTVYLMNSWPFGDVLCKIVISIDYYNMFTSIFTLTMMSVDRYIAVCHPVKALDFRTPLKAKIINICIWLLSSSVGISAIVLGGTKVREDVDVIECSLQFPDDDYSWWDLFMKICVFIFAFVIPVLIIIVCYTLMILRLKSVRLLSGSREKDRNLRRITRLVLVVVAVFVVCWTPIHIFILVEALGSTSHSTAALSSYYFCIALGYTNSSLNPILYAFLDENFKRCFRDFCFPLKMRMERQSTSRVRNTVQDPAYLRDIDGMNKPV
Proto-oncogene tyrosine-protein kinase receptor Ret (Homo sapiens), P07949 [M918T], sequence (P07949 whole entry M918T): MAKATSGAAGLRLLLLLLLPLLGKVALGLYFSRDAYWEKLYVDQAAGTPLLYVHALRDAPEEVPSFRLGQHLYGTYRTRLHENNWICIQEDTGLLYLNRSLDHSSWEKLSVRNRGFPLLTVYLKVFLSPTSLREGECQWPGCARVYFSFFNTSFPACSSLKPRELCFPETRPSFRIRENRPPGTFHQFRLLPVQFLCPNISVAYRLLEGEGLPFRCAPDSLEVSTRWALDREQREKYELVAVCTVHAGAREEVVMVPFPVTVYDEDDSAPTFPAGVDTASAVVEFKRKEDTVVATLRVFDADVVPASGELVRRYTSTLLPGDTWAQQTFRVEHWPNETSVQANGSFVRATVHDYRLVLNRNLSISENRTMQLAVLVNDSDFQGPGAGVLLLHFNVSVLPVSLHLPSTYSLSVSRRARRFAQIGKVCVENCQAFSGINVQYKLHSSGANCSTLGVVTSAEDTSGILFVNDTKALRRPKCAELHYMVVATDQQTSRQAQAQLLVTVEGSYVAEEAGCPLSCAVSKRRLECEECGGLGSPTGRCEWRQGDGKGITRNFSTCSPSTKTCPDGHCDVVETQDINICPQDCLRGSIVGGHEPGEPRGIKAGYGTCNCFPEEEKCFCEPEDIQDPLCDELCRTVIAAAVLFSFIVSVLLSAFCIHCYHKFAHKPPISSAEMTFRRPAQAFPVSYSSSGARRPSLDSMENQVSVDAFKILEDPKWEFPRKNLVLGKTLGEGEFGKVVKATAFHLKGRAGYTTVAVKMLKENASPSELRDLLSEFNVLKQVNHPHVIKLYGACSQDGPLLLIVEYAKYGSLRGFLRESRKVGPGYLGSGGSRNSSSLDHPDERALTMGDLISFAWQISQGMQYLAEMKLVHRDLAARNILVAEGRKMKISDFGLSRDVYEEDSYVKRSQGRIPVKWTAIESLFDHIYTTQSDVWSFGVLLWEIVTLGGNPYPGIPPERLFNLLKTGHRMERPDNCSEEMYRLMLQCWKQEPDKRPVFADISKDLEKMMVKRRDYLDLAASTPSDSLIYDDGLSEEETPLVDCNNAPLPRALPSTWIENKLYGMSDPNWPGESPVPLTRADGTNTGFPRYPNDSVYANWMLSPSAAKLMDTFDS
Sodium-dependent serotonin transporter (Homo sapiens), sequence (P31645 whole entry, looked up): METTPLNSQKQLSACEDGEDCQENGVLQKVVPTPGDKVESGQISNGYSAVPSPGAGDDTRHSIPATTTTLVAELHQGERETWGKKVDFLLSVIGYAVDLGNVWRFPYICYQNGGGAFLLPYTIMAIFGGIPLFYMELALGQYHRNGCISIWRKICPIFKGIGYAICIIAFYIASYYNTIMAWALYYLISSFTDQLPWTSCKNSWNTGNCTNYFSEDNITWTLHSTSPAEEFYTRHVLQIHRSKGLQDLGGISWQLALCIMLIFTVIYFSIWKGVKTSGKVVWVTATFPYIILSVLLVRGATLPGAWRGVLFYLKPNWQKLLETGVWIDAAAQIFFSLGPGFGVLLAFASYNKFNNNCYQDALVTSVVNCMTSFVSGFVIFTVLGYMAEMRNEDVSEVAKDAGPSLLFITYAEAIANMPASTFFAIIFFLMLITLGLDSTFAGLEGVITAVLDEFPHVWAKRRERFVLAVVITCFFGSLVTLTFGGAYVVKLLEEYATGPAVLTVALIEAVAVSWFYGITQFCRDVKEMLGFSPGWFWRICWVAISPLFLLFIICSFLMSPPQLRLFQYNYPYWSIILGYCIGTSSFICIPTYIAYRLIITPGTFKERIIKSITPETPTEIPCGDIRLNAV
B2 bradykinin receptor (Homo sapiens), sequence (P30411 whole entry): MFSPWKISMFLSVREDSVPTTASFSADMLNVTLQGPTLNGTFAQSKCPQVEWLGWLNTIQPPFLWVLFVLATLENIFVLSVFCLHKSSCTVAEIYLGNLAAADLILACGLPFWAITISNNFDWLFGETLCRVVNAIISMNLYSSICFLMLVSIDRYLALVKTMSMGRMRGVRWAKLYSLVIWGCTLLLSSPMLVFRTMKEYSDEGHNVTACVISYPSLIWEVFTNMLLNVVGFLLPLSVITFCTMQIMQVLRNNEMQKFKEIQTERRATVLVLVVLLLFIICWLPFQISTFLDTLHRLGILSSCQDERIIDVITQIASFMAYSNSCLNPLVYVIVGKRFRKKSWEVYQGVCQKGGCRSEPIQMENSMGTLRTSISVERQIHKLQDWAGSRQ

## CC(=O)N1CCC(c2ccc(C(=O)NC(=N)N)cc2C(F)(F)F)CC1 [BI 9627]
[1]
  residual activity: 89%
[2]
  residual activity: 98%
[3]
  residual activity: 105%
[4]
  residual activity: 102%
[5]
  activity at 10 µM: 77% (not active)
[6]
  residual activity: 98%
[7]
  residual activity: 95%
[8]
  residual activity: 117%
[9]
  residual activity: 105%
[10]
  residual activity: 101%
[11]
  residual activity: 113%
[12]
  residual activity: 103%
[13]
  residual activity: 101%
[14]
  residual activity: 103%
[15]; Compound concentration 0.03 uM
  residual activity: 102%
[15]; Compound concentration 0.1 uM
  residual activity: 108%
[15]; Compound concentration 0.3 uM
  residual activity: 71%
[15]; Compound concentration 1.0 uM
  residual activity: 70%
[15]; Compound concentration 3.0 uM
  residual activity: 48%
[15]; Compound concentration 10.0 uM
  residual activity: 33%
[15]; Compound concentration 30.0 uM
  residual activity: 11%
[16]
  residual activity: 91%
[17]
  residual activity: 100%
[18]
  residual activity: 101%
[19]
  residual activity: 92%
[20]
  residual activity: 95%
[21]
  inhibition: 9.26%
[22]
  inhibition: -9.29%

## CC(=O)N1CCC(c2ccc(C(=O)NC3=NCCN3)cc2C(F)(F)F)CC1 [BI 0054]
[23]
  residual activity: 90%
[24]
  inhibition: -0.596%
